Reference: patent US20050197350A1, “Novel quinoline, tetrahydroquinazoline, and pyrimidine derivatives and methods of treatment related to the use thereof” (TAISHO PHARMACEUTICAL CO., LTD., priority 2003, published 2005)

What follows are molecules tested on MCH receptors (assay: MCH receptor activity class (method not given)). Conditions: MCH receptor; class by percent of control at 10^-7 M or IC50.
For COc1cccc(CC(=O)N[C@H]2CC[C@@H](Nc3cc(N(C)C)c4ccccc4n3)CC2)c1 [compound 67], the class was 3 (Class 3 The value of percent of control at 10^−7 M was more than 60% or the value of IC50 was more than 200 nM.). CN(C)c1cc(N[C@H]2CC[C@@H](NC(=O)Cc3ccc(F)cc3)CC2)nc2ccccc12 [compound 68] was tested, and the class was 3 (Class 3 The value of percent of control at 10^−7 M was more than 60% or the value of IC50 was more than 200 nM.). For COc1ccc(CC(=O)N[C@H]2CC[C@@H](Nc3cc(N(C)C)c4ccccc4n3)CC2)cc1 [compound 69], the class was 3 (Class 3 The value of percent of control at 10^−7 M was more than 60% or the value of IC50 was more than 200 nM.). With Cc1cc(C(=O)N[C@H]2CC[C@@H](Nc3cc(N(C)C)c4ccccc4n3)CC2)c(C(F)(F)F)o1 [compound 70] the class was 3 (Class 3 The value of percent of control at 10^−7 M was more than 60% or the value of IC50 was more than 200 nM.). With Cc1cc(C(=O)N[C@H]2CC[C@@H](Nc3cc(N(C)C)c4ccccc4n3)CC2)c(C)o1 [compound 71, N-(cis-4-{[4-(dimethylamino)quinolin-2-yl]amino}cyclohexyl)-2,5-dimethyl-3-furamide] the class was 1 (Class 1: The value of percent of control at 10^−7 M was less than 40% or the value of IC50 was less than 50 nM.). With CCOc1ccccc1C(=O)N[C@H]1CC[C@@H](Nc2cc(N(C)C)c3ccccc3n2)CC1 [compound 72] the class was 3 (Class 3 The value of percent of control at 10^−7 M was more than 60% or the value of IC50 was more than 200 nM.). For CN(C)c1cc(N[C@H]2CC[C@@H](NC(=O)c3ccc(F)c(Cl)c3)CC2)nc2ccccc12 [compound 73, 3-chloro-N-(cis-4-{[4-(dimethylamino)quinolin-2-yl]amino}cyclohexyl)-4-fluorobenzamide], the class was 1 (Class 1: The value of percent of control at 10^−7 M was less than 40% or the value of IC50 was less than 50 nM.). For Cc1ccc(C(=O)N[C@H]2CC[C@@H](Nc3cc(N(C)C)c4ccccc4n3)CC2)cc1F [compound 74, N-(cis-4-{[4-(dimethylamino)quinolin-2-yl]amino}cyclohexyl)-3-fluoro-4-methylbenzamide], the class was 2 (Class 2: The value of percent of control at 10^−7 M was from 40% to 60% or the value of IC′50 was from 50 nM to 200 nM.). With CN(C)c1cc(N[C@H]2CC[C@@H](NC(=O)CC3CCCC3)CC2)nc2ccccc12 [compound 75] the class was 3 (Class 3 The value of percent of control at 10^−7 M was more than 60% or the value of IC50 was more than 200 nM.). In the case of COc1cc(OC)cc(C(=O)N[C@H]2CC[C@@H](Nc3cc(N(C)C)c4ccccc4n3)CC2)c1 [compound 76, N-(cis-4-{[4-(dimethylamino)quinolin-2-yl]amino}cyclohexyl)-3,5-dimethoxybenzamide], the class is reported as 3 (Class 3 The value of percent of control at 10^−7 M was more than 60% or the value of IC50 was more than 200 nM.). For CN(C)c1cc(N[C@H]2CC[C@@H](NC(=O)c3ccc(C#N)cc3)CC2)nc2ccccc12 [compound 77], the class was 3 (Class 3 The value of percent of control at 10^−7 M was more than 60% or the value of IC50 was more than 200 nM.). In the case of CN(C)c1cc(N[C@H]2CC[C@@H](NC(=O)c3cc(C(F)(F)F)cc(C(F)(F)F)c3)CC2)nc2ccccc12 [compound 78, N-(cis-4-{[4-(dimethylamino)quinolin-2-yl]amino}cyclohexyl)-3,5-bis(trifluoromethyl)benzamide], the class is reported as 2 (Class 2: The value of percent of control at 10^−7 M was from 40% to 60% or the value of IC′50 was from 50 nM to 200 nM.). With CN(C)c1cc(N[C@H]2CC[C@@H](NC(=O)/C=C/c3ccc([N+](=O)[O-])cc3)CC2)nc2ccccc12 [compound 79] the class was 3 (Class 3 The value of percent of control at 10^−7 M was more than 60% or the value of IC50 was more than 200 nM.). For CN(C)c1cc(N[C@H]2CC[C@@H](NC(=O)Cc3ccccc3Br)CC2)nc2ccccc12 [compound 80], the class was 3 (Class 3 The value of percent of control at 10^−7 M was more than 60% or the value of IC50 was more than 200 nM.).
